Measured values published in the supplement of paper PMC10307832.

Columns and labels:
Test in all cases: relative viability (nuclei count vs DMSO), 5 days (fraction); higher = more cells survive
[1] = compound: C=CCc1cccc(/C=N/NC(=O)CN2CCN(Cc3ccccc3)CC2)c1O [PAC-1] + O=C(CCCCCCC(=O)Nc1ccccc1)NO [Vorinostat] (partner 1 µM)
Summary of the method: (§1)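 Lung cancer cell lines in 1536-well plates were dosed by pin tool the day after seeding, either with one drug alone or with a fixed anchor-drug dose plus five library-drug doses (not always all listed) in √10 steps. After 5 days, cells were fixed and their nuclei stained in one step (final 0.05% Triton X-100, 1% formaldehyde, 1 ug/ml Hoechst), then counted on 4× images. Relative viability is the nuclei count in treated wells divided by that in vehicle wells. Values are medians of duplicate plates.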

[2] = compound: C=CC(=O)Nc1cc(-n2c(=O)ccc3cnc4ccc(-c5ccc(NS(C)(=O)=O)cc5)cc4c32)ccc1C [BMX-IN-1] + CC(=O)c1c(C)c2cnc(Nc3ccc(N4CCNCC4)cn3)nc2n(C2CCCC2)c1=O [Palbociclib] (partner 0.5 µM)
Summary of the method: as §1

[3] = compound: C=CC(=O)Nc1cc(-n2c(=O)ccc3cnc4ccc(-c5ccc(NS(C)(=O)=O)cc5)cc4c32)ccc1C [BMX-IN-1] + O=C(CCCCCCC(=O)Nc1ccccc1)NO [Vorinostat] (partner 1 µM)
Summary of the method: as §1

[4] = compound: C=CC(=O)Nc1cc(-n2c(=O)ccc3cnc4ccc(-c5ccc(NS(C)(=O)=O)cc5)cc4c32)ccc1C [BMX-IN-1] + CC1(C)CCC(c2ccc(Cl)cc2)=C(CN2CCN(c3ccc(C(=O)NS(=O)(=O)c4ccc(N[C@H](CCN5CCOCC5)CSc5ccccc5)c(S(=O)(=O)C(F)(F)F)c4)cc3)CC2)C1 [Navitoclax] (partner 0.5 µM)
Summary of the method: as §1

[5] = compound: C=CCc1cccc(/C=N/NC(=O)CN2CCN(Cc3ccccc3)CC2)c1O [PAC-1] + NC(=O)Nc1cc(-c2cccc(F)c2)sc1C(=O)N[C@H]1CCCNC1 [AZD7762] (partner 0.2 µM)
Summary of the method: as §1

Cell Line	relative viability ([1]; first compound 0.02 µM)	relative viability ([1]; first compound 0.06325 µM)	relative viability ([1]; first compound 0.2 µM)	relative viability ([1]; first compound 2 µM)	relative viability ([2]; first compound 0.02 µM)	relative viability ([2]; first compound 0.2 µM)	relative viability ([2]; first compound 0.6325 µM)	relative viability ([2]; first compound 2 µM)	relative viability ([3]; first compound 0.02 µM)	relative viability ([3]; first compound 0.2 µM)	relative viability ([3]; first compound 0.6325 µM)	relative viability ([3]; first compound 2 µM)	relative viability ([4]; first compound 0.02 µM)	relative viability ([4]; first compound 0.2 µM)	relative viability ([4]; first compound 0.6325 µM)	relative viability ([4]; first compound 2 µM)	relative viability ([5]; first compound 0.02 µM)	relative viability ([5]; first compound 0.06325 µM)	relative viability ([5]; first compound 0.2 µM)	relative viability ([5]; first compound 2 µM)
COR-L 105	1.08	0.817	0.817	0.801	0.449	0.442	0.447	0.39	0.943	0.886	0.996	0.716	0.756	0.779	0.875	0.709				
NCI-H2228	0.699	0.932	0.546	0.504	0.948	0.878	0.608	0.785	0.938	0.884	0.531	0.561	0.954	0.853	1.44	0.969				
NCI-H1650	0.507	0.672	0.52	0.418	0.307	0.313	0.32	0.333	0.501	0.452	0.571	0.522	1.16	1.25	1.36	1.25				
LCLC-103H	0.854	0.864	0.759	0.826	0.475	0.532	0.479	0.412	0.724	0.823	0.882	0.842					0.833	0.764	0.713	0.757
UMC-11	0.36	0.41	0.349	0.513	0.345	0.336	0.341	0.318	0.343	0.417	0.336	0.332	0.285	0.327	0.283	0.294				
